Source: patent US20110195900A1, “PEPTIDIC PTH RECEPTOR AGONISTS” (FERRING B.V., priority 2008, published 2011)
Like-named read-outs stand apart in the source and are kept apart here. Non-standard residues stand in square brackets, D forms with d. Residues, ends and D or L forms follow the SMILES beside them. 1Nal = N[C@@H](Cc1cccc2ccccc12)C(=O)O; β3hI = CC[C@H](C)[C@H](N)CC(=O)O; β3hK = NCCCC[C@H](N)CC(=O)O; hSer = N[C@@H](CCO)C(=O)O; Nle = CCCC[C@H](N)C(=O)O; β3hA = C[C@H](N)CC(=O)O; Aib = CC(C)(N)C(=O)O; βAla = NCCC(=O)O

Tests used:
human PTH-1 receptor = biological target: T1, human PTH-1 receptor (Homo sapiens, UniProt Q03431); experiment: Reporter gene assay (CRE-luciferase) for agonist activity in transiently transfected HEK-293 cells; format: cell-based; details: for hPTHR-2/hPTHR-1 / Selectivity hPTHR-2/hPTHR-1: ratio of EC50 values; for hPTHR-2/hPTHR-1: selectivity for hPTH-1 receptor over hPTH-2 receptor; for Selectivity hPTHR-2/hPTHR-1: Table 4 comparison data
T1 construct: expressed in transfected cells; host or cells: HEK-293
T1 sequence (Q03431 27-593): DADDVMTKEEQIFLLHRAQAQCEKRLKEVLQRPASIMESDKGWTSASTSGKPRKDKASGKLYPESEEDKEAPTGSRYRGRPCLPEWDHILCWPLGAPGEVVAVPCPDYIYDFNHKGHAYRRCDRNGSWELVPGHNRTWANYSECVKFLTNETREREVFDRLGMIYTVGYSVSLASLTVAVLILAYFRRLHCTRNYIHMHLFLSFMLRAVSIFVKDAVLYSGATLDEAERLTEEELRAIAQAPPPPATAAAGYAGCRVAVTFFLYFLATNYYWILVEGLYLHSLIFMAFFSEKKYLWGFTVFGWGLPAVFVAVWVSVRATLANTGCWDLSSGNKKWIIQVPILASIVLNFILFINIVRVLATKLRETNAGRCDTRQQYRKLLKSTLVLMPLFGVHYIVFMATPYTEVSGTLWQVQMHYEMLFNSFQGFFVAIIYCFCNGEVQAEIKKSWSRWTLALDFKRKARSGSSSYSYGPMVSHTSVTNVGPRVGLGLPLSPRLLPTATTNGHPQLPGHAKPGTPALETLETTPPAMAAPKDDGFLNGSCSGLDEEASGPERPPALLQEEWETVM
Summary of the method: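 HEK-293 cells transiently transfected with SV40-driven human PTH-1 receptor and CRE-luciferase reporter, exposed to serial compound dilutions for 4-5 h, then lysed for luciferase readout; efficacy and EC50 by non-linear regression, PTH (1-34) as internal control, n≥3. Selectivity measured in analogous human PTH-2 receptor luciferase reporter assays.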

human PTH-2 receptor = biological target: T2, human PTH-2 receptor (Homo sapiens, UniProt P49190); experiment: Luciferase-based transcriptional reporter gene assay for selectivity; format: cell-based
T2 construct: expressed in transfected cells
T2 sequence (P49190 25-550): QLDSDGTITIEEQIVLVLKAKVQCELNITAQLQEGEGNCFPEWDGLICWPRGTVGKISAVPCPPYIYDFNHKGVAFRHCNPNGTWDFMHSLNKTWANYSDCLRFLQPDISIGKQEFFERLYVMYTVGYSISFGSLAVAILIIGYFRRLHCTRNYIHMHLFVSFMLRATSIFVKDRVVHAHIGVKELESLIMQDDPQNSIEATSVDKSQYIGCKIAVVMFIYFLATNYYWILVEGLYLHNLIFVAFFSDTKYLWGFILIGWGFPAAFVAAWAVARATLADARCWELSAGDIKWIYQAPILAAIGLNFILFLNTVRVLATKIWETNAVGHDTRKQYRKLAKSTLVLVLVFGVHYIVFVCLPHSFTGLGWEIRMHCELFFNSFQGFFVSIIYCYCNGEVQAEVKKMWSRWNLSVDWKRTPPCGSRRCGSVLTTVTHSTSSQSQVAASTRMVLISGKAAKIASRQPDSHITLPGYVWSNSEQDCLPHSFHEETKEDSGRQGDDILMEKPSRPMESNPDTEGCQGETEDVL
Experimental: Agonist activity of compounds on the human PTH-1 receptor was determined in a reporter gene assay by transiently transfecting HEK-293 cells with plasmids encoding human PTH-1 receptor under control of the SV40 promoter and a luciferase reporter gene under control of cAMP responsive elements (CRE). See Himmler et al, J. Recept. Res. 13 (1993) 79-94, for further guidance on this assay. Transfected cells were exposed to serial dilutions of compounds for 4-5 hours followed by lysis of cells, determination of luciferase activity, and determination of compound efficacies and EC50 values through non-linear regression.
PTH (1-34) was used as an internal control in each experiment and compounds were tested in at least three independent experiments. To determine selectivity, compounds were tested in luciferase-based transcriptional reporter gene assays expressing the human PTH-2 receptor.

Structure (SMILES) | hPTHR-2/hPTHR-1 (human PTH-1 receptor; Table 3) | EC50 (human PTH-2 receptor) | EC50 (human PTH-1 receptor) | Selectivity hPTHR-2/hPTHR-1 (human PTH-1 receptor) | EC50 (human PTH-1 receptor; Table 3, HEK-293 cells, CRE-luciferase, 4-5 hours exposure, read-out: hPTHR-1 EC50) | EC50 (human PTH-2 receptor; Table 3, luciferase reporter gene assay, read-out: hPTHR-2 EC50)
CCCC[C@H](NC(=O)[C@H](CC(C)C)NC(=O)[C@H](CCC(N)=O)NC(=O)[C@@H](NC(=O)[C@H](CCC(=O)O)NC(=O)[C@H](CO)NC(=O)[C@@H](NC(=O)[C@@H](N)CO)C(C)C)[C@@H](C)CC)C(=O)N[C@@H](Cc1c[nH]cn1)C(=O)N[C@@H](CC(N)=O)C(=O)N[C@@H](CC(C)C)C(=O)NC(C)(C)C(=O)N[C@@H](CCCCN)C(=O)N[C@@H](Cc1c[nH]cn1)C(=O)N[C@@H](CC(C)C)C(=O)N[C@@H](CC(N)=O)C(=O)N[C@@H](CO)C(=O)N[C@H](CC(=O)N[C@@H](CCC(=O)O)C(=O)N[C@@H](CCCNC(=N)N)C(=O)N[C@H](C(=O)N[C@@H](CCC(=O)O)C(=O)N[C@@H](Cc1cccc2ccccc12)C(=O)N[C@@H](CC(C)C)C(=O)N[C@@H](CCCNC(=N)N)C(=O)N[C@@H](CCCCN)C(=O)N[C@@H](CC(C)C)C(=O)N[C@@H](CC(C)C)C(=O)N[C@@H](CCC(N)=O)C(=O)N[C@@H](CC(=O)O)C(=O)N[C@H](C(=O)N[C@@H](Cc1c[nH]cn1)C(=O)N[C@@H](CC(N)=O)C(=O)N[C@@H](Cc1ccccc1)C(N)=O)C(C)C)C(C)C)[C@@H](C)CC [SEQ ID NO: 32, [Nle^8, Aib^12, β-hIle^18,1-Nal^23, Leu^27] hPTH (1-34)-NH2] (H-SVSEIQL[Nle]HNL[Aib]KHLNS[β3hI]ERVE[1Nal]LRKLLQDVHNF-NH2) | 55 | 13 nM |  |  |  | 
CC[C@H](C)[C@H](NC(=O)[C@H](CCC(=O)O)NC(=O)[C@H](CO)NC(=O)[C@@H](NC(=O)[C@@H](N)CO)C(C)C)C(=O)N[C@@H](CCC(N)=O)C(=O)N[C@@H](CC(C)C)C(=O)N[C@@H](CCOC)C(=O)N[C@@H](Cc1c[nH]cn1)C(=O)N[C@@H](CC(N)=O)C(=O)N[C@@H](CC(C)C)C(=O)NCC(=O)N[C@@H](CCCCN)C(=O)N[C@@H](Cc1c[nH]cn1)C(=O)N[C@@H](CC(C)C)C(=O)N[C@@H](CC(N)=O)C(=O)NCCC(=O)N[C@@H](CCOC)C(=O)N[C@@H](CCC(=O)O)C(=O)N[C@@H](CCCNC(=N)N)C(=O)N[C@H](C(=O)N[C@@H](CCC(=O)O)C(=O)N[C@@H](Cc1cccc2ccccc12)C(=O)N[C@@H](CC(C)C)C(=O)N[C@@H](CCCNC(=N)N)C(=O)N[C@@H](CCCCN)C(=O)N[C@@H](CC(C)C)C(=O)N[C@@H](CC(C)C)C(=O)N[C@@H](CCC(N)=O)C(=O)N[C@@H](CC(=O)O)C(=O)N[C@H](C(=O)N[C@@H](Cc1c[nH]cn1)C(=O)N[C@@H](CC(N)=O)C(=O)N[C@@H](Cc1ccccc1)C(N)=O)C(C)C)C(C)C [SEQ ID NO: 17, [hSer(OMe)^8,18, β-Ala^17,1-Nal^23, Leu^27] hPTH(1-34)-NH2] (H-SVSEIQL[hSer](Me)HNLGKHLN[βAla][hSer](Me)ERVE[1Nal]LRKLLQDVHNF-NH2) | >300 | > 270 nM |  |  |  | 
CCCC[C@H](NC(=O)[C@H](CC(C)C)NC(=O)[C@H](CCC(N)=O)NC(=O)[C@@H](NC(=O)[C@H](CCC(=O)O)NC(=O)[C@H](CO)NC(=O)[C@@H](NC(=O)[C@@H](N)CO)C(C)C)[C@@H](C)CC)C(=O)N[C@@H](Cc1c[nH]cn1)C(=O)N[C@@H](CC(N)=O)C(=O)N[C@@H](CC(C)C)C(=O)NCC(=O)N[C@@H](CCCCN)C(=O)N[C@@H](Cc1c[nH]cn1)C(=O)N[C@@H](CC(C)C)C(=O)N[C@@H](CC(N)=O)C(=O)N[C@@H](CO)C(=O)N[C@@H](C)CC(=O)N[C@@H](CCC(=O)O)C(=O)N[C@@H](CCCNC(=N)N)C(=O)N[C@H](C(=O)N[C@@H](CCC(=O)O)C(=O)N[C@@H](Cc1cccc2ccccc12)C(=O)N[C@@H](CC(C)C)C(=O)N[C@@H](CCCNC(=N)N)C(=O)N[C@@H](CCCCN)C(=O)N[C@@H](CC(C)C)C(=O)N[C@@H](CC(C)C)C(=O)N[C@@H](CCC(N)=O)C(=O)N[C@@H](CC(=O)O)C(=O)N[C@H](C(=O)N[C@@H](Cc1c[nH]cn1)C(=O)N[C@@H](CC(N)=O)C(=O)N[C@@H](Cc1ccccc1)C(N)=O)C(C)C)C(C)C [SEQ ID NO: 18, [Nle^8, β-hAla^18,1-Nal^23, Leu^27] hPTH (1-34)-NH2] (H-SVSEIQL[Nle]HNLGKHLNS[β3hA]ERVE[1Nal]LRKLLQDVHNF-NH2) | 281 | 61 nM | 0.22 nM | 281 |  | 
CCCC[C@H](NC(=O)[C@H](CC(C)C)NC(=O)[C@H](CCC(N)=O)NC(=O)[C@@H](NC(=O)[C@H](CCC(=O)O)NC(=O)[C@H](CO)NC(=O)[C@@H](NC(=O)[C@@H](N)CO)C(C)C)[C@@H](C)CC)C(=O)N[C@@H](Cc1c[nH]cn1)C(=O)N[C@@H](CO)C(=O)N[C@@H](CC(C)C)C(=O)NCC(=O)N[C@@H](CCCCN)C(=O)N[C@@H](Cc1c[nH]cn1)C(=O)N[C@@H](CC(C)C)C(=O)N[C@@H](CCCCN)C(=O)N[C@@H](CO)C(=O)N[C@H](CC(=O)N[C@@H](CCC(=O)O)C(=O)N[C@@H](CCCNC(=N)N)C(=O)N[C@H](C(=O)N[C@@H](CCC(=O)O)C(=O)N[C@@H](Cc1cccc2ccccc12)C(=O)N[C@@H](CC(C)C)C(=O)N[C@@H](CCCNC(=N)N)C(=O)N[C@@H](CCCCN)C(=O)N[C@@H](CC(C)C)C(=O)N[C@@H](CC(C)C)C(=O)N[C@@H](CCC(N)=O)C(=O)N[C@@H](CCCNC(=N)N)C(=O)N[C@H](C(=O)N[C@@H](Cc1c[nH]cn1)C(=O)N[C@@H](CCC(=O)O)C(=O)N[C@@H](CCC(=O)O)C(N)=O)C(C)C)C(C)C)[C@@H](C)CC [SEQ ID NO: 44, [Nle^8, Ser^10, Lys^16, β-hIle^18,1-Nal^23, Leu^27, Arg^30, Glu^33, Glu^34] hPTH (1-34)-NH2] (H-SVSEIQL[Nle]HSLGKHLKS[β3hI]ERVE[1Nal]LRKLLQRVHEE-NH2) | 154 | 6 nM | 0.04 nM |  |  | 
CCCC[C@H](NC(=O)CCNC(=O)[C@H](CC(N)=O)NC(=O)[C@H](CC(C)C)NC(=O)[C@H](Cc1c[nH]cn1)NC(=O)[C@H](CCCCN)NC(=O)CNC(=O)[C@H](CC(C)C)NC(=O)[C@H](CC(N)=O)NC(=O)[C@H](Cc1c[nH]cn1)NC(=O)[C@H](CCCC)NC(=O)[C@H](CC(C)C)NC(=O)[C@H](CCC(N)=O)NC(=O)[C@@H](NC(=O)[C@H](CCC(=O)O)NC(=O)[C@H](CO)NC(=O)[C@@H](NC(=O)C(C)(C)N)C(C)C)[C@@H](C)CC)C(=O)N[C@@H](CCC(=O)O)C(=O)N[C@@H](CCCNC(=N)N)C(=O)N[C@H](C(=O)N[C@@H](CCC(=O)O)C(=O)N[C@@H](Cc1cccc2ccccc12)C(=O)N[C@@H](CC(C)C)C(=O)N[C@@H](CCCNC(=N)N)C(=O)N[C@@H](CCCCN)C(=O)N[C@@H](CC(C)C)C(=O)N[C@@H](CC(C)C)C(=O)N[C@@H](CCC(N)=O)C(=O)N[C@@H](CC(=O)O)C(=O)N[C@H](C(=O)N[C@@H](Cc1c[nH]cn1)C(=O)N[C@@H](CC(N)=O)C(=O)N[C@@H](Cc1ccccc1)C(N)=O)C(C)C)C(C)C [SEQ ID NO: 2, [Aib^1, Nle^8,18, β-Ala^17,1-Nal^23, Leu^27] hPTH (1-34)-NH2] (H-[Aib]VSEIQL[Nle]HNLGKHLN[βAla][Nle]ERVE[1Nal]LRKLLQDVHNF-NH2) | 566 | 31 nM | 0.06 nM | 566 |  | 
CCCC[C@H](NC(=O)[C@H](CC(C)C)NC(=O)[C@H](CCC(N)=O)NC(=O)[C@@H](NC(=O)[C@H](CCC(=O)O)NC(=O)[C@H](CO)NC(=O)[C@@H](NC(=O)C(C)(C)N)C(C)C)[C@@H](C)CC)C(=O)N[C@@H](Cc1c[nH]cn1)C(=O)N[C@@H](CC(N)=O)C(=O)N[C@@H](CC(C)C)C(=O)NCC(=O)N[C@@H](CCCCN)C(=O)N[C@@H](Cc1c[nH]cn1)C(=O)N[C@@H](CC(C)C)C(=O)N[C@@H](CC(N)=O)C(=O)N[C@@H](CO)C(=O)N[C@@H](CCOC)C(=O)N[C@@H](CCCCN)CC(=O)N[C@@H](CCCNC(=N)N)C(=O)N[C@H](C(=O)N[C@@H](CCC(=O)O)C(=O)N[C@@H](Cc1cccc2ccccc12)C(=O)N[C@@H](CC(C)C)C(=O)N[C@@H](CCCNC(=N)N)C(=O)N[C@@H](CCCCN)C(=O)N[C@@H](CC(C)C)C(=O)N[C@@H](CC(C)C)C(=O)N[C@@H](CCC(N)=O)C(=O)N[C@@H](CC(=O)O)C(=O)N[C@H](C(=O)N[C@@H](Cc1c[nH]cn1)C(=O)N[C@@H](CC(N)=O)C(=O)N[C@@H](Cc1ccccc1)C(N)=O)C(C)C)C(C)C [SEQ ID NO: 47, [Aib^1, Nle^8, hSer(OMe)^18, β-hLys^19,1-Nal^23, Leu^27] hPTH (1-$$4)-NH2] (H-[Aib]VSEIQL[Nle]HNLGKHLNS[hSer](Me)[β3hK]RVE[1Nal]LRKLLQDVHNF-NH2) | 51 |  |  |  | 0.05 nM | 3 nM
